US20080220416A1, “Compositions for Inhibiting Cell Growth and Inducing Apoptosis in Cancer Cells and Methods of Use Thereof” (THE BOARD OF TRUSTEES OF THE UNIVERSITY OF ILLINOI, priority 2004, published 2008)
Peptide text beside a SMILES is read from it. * marks the point of attachment. Cbz = O=C(OCc1ccccc1)*

Tests used:
Assay type in all cases: cell-based, human
normal melanocytes = assay: Proteasome inhibitors, apoptosis of normal melanocyte cultures (Annexin V FITC flow cytometry); details: MC-005, MC-006, MC-008; 24 hrs; 1, 5 or 10 μM
Description: (§1) The proteasome inhibitors lactacystin, MG-132, and bortezomib were evaluated for the ability to induce apoptosis in malignant melanoma cell lines (n=3) including an early passage line, RJ002L. MG-132 was obtained from Calbiochem (La Jolla, Calif.) and dissolved in DMSO. Lactacystin was purchased from Sigma Chemical Co. (St. Louis, Mo.) and dissolved in PBS. Bortezomib was obtained from a pharmacy as VELCADE (bortezomib) for Injection from a single use vial for intravenous use only (Millennium Pharmaceuticals, Cambridge, Mass.). A cell line with wild-type p53 (RJ002L) and two melanoma cell lines with mutant p53 alleles (C8161 and MUM2B) were included in this study. Two additional melanoma cell lines were also used: cutaneous SK-MeI-28 cells and primary, early passage MG012 cells. In addition, five normal melanocyte culture cell lines (MC-005, MC-006, MC-008, MC-009 and MC-011) were examined. Prior to testing, the melanoma cell lines were maintained in RPMI supplemented with 10% FBS. Normal human melanocytes were isolated from neonatal foreskins as previously described (Qin J et al., 2004, Mol Cancer Ther 3:895-902, 2004) and cultured with medium 154 containing growth supplements (Cascade Biologics, Portland, Oreg.).
To assess the effect of proteasome inhibitors on the cell lines, the cells were grown in suitable culture media as described above. […]
Following treatment with the proteasome inhibitors, the melanoma and melanocyte cell cultures were assayed for apoptotic cells using the APO TARGET Annexin V FITC staining kit (Biosource, Camarillo, Calif.) according to the manufacturer's instructions followed by flow cytometric analysis using FACScaliber (Becton Dickinson, Palo Alto, Calif.) as described in Qin, J. et al., 2001, Nat Med 7: 385-386. In some cases, cell cycle and apoptosis analysis was measured using propidium iodide staining and flow cytometry as described. […] For cell analysis, DNA histograms were analyzed using MultiCycle for Windows (Phoenix Flow Systems, San Diego, Calif.) as described in Denning, M. F. et al., 1998, J Biol Chem 273: 29995-30002.

melanoma cell lines = assay: Proteasome inhibitors, apoptosis of melanoma cell lines (Annexin V FITC flow cytometry); details: RJ002L, MG012, C8161, MUM2B, SK-MeI-28; 1-10 μM; 24 hrs
Description: as §1
To assess the effect of proteasome inhibitors on the cell lines, the cells were grown in suitable culture media as described above. Highly proliferating cells (i.e., cells that had reached approximately 30% confluency) were exposed to the inhibitors as described below. The culture media was replenished with media containing proteasome inhibitors at various concentrations and the cells were incubated for 24 hours prior to harvesting the cells for further analysis.
Following treatment with the proteasome inhibitors, the melanoma and melanocyte cell cultures were assayed for apoptotic cells using the APO TARGET Annexin V FITC staining kit (Biosource, Camarillo, Calif.) according to the manufacturer's instructions followed by flow cytometric analysis using FACScaliber (Becton Dickinson, Palo Alto, Calif.) as described in Qin, J. et al., 2001, Nat Med 7: 385-386. In some cases, cell cycle and apoptosis analysis was measured using propidium iodide staining and flow cytometry as described. Cells with DNA content less than the G0 amount of untreated cells were considered apoptotic. For cell analysis, DNA histograms were analyzed using MultiCycle for Windows (Phoenix Flow Systems, San Diego, Calif.) as described in Denning, M. F. et al., 1998, J Biol Chem 273: 29995-30002.

NOXA [1] = assay: Western blot of NOXA after proteasome inhibitors in melanoma cells; details: RJ002L, C8161, MUM2B; 1 μM or 10 μM; 18 hrs
Excerpt: (§2) A panel of melanoma cells were used to assess the effect of bortezomib on pro-apoptotic proteins. RJ002L, C8161, MUM2B and SK-MeI-28 melanoma cells, as well as two normal melanocyte cultures (MC-010 and MC-012) were examined. Prior to testing, the RJ002L melanoma cell lines were maintained in RPMI supplemented with 10% FBS. Late passage melanoma cell lines (C8161, MUM2B and SK-Me1028) were utilized as previously described (Welch D et al., 1991, Int J Cancer 47:227-237; Bittner M et al., 2000, Nature 406:536-540). Normal human melanocytes were isolated from neonatal foreskins and cultured as previously described (Qin J et al., 2004, Mol Cancer Ther 3:895-902). Proliferating cells were examined by Western blot analysis before and after 18 hrs of exposure to bortezomib (1 μM). Antibodies were obtained as follows: Bad (SC-8044), Bcl-2 (SC-7382), Bcl-xL (SC-634), Mcl-1 (SC-819), Bak (SC-832) from Santa Cruz Biotechnology (Santa Cruz, Calif.); NOXA (OP180) from Calbiochem; Bid, Bim and PUMA from Cell Signaling (Beverly, Mass.); BAX from Upstate (Charlottesville, Va.); and β-actin from ICN (Irvine, Calif.). For the Western blot analysis, whole cell extracts were prepared as previously described (Denning M et al., 1998, J Biol Chem 273:29995-30002). Briefly, cells were harvested by scraping monolayers and washed with PBS. Cell pellets were resuspended in CHAPS buffers containing a protease inhibitor cocktail. Extracts were vigorously shaken at 4° C. for 15 min followed by centrifugation. Supernatants were collected and protein concentration determined using Bio-Rad reagent. Thirty to 50 microgram protein samples were resolved by SDS-polyacrylamide gel electrophoresis and transferred to polyvinylidene difluoride membrane by electroblotting. Membranes were probed with the various primary antibodies overnight at 4° C., followed by detection using ECL reagents (Amersham Pharmacia Biotech, Piscataway, N.J.) according to manufacturer's instructions.
(§3) Two other proteasome inhibitors, lactasytsin and MG-132, were tested for the ability to induce NOXA in melanoma cells and melanocytes. […]

NOXA [2] = assay: Western blot of NOXA after proteasome inhibitors in normal melanocytes; details: MC-004, MC-005, MC-006, MC-008; 1 μM or 10 μM; 18 hrs
Excerpt: as §2, §3

[3] = system: MDA-MB231 breast cancer cells; assay: Cytotoxicity and growth assay in MDA-MB231 breast cancer cells (SRB, TCA-precipitated protein); details: MDA-MB231; up to 3 days
Description: An invasive, estrogen-independent breast cancer cell line that spontaneously expresses high levels of Notch-1 and -4, MDA-MB231, and normal human breast cells were used to investigate whether inhibition of Notch activation or expression affects the biological behavior of breast cancer cells. Human Mammary Epithelial Cells (HMEC) were purchased from Clonetics and cultured in mammary epithelial cell basal medium (MEBM) supplemented with 52 μg/ml Bovine Pituitary Extract […], […] human recombinant Epidermal Growth Factor (hEGF), 5 μg/ml insulin, 0.5 μg/ml Hydrocortisone, 50 μg/ml Gentamicin and 50 μg/ml Amphotericin-B. MDA-MB231 (ATCC, Rockville, Md.) were cultured in DMEM medium with 10% FBS. Notch expression in HMEC and MDA-MB231 cells was silenced using highly specific RNAi. Double-stranded synthetic 21-mer RNA oligonucleotides (siRNAs) were purchased from Dharmacon (Lafayette, Colo.). […] Sequence specificity was determined by BLAST searches which determined the uniqueness of the sequences. Transfection of siRNAs was performed using Oligofectamine (Invitrogen) as recommended by the siRNA manufacturer (Dharmacon). Transfection efficiency was optimized and followed on parallel wells using DNA double stranded oligos of identical sequence to the siRNAs, labeled with biotin on one strand. Transfected cells were identified by Streptavidin-horseradish peroxidase staining (Vectastain) and counted. Transfection efficiencies around 80% were routinely obtained.
Cytotoxicity and growth of transfected cells were estimated by a standard assay used for cancer drug screening, through the total amount of TCA-precipitated cell proteins after drug treatment (Likhitwitayawuid, K et al., 1993, J Nat Prod 56:30-38): 200 μl of cell suspension (10^5 cells/ml) were added to each well in a 96-well plate. After incubation at, 37° C., in 5% CO2 (30 minutes to 72 hours depending on the time course chosen), 50 μl 50% trichloroacetic acid was added to each well. After incubation at 4° C. for 1 hour, precipitates were washed with water 4-5 times and air dried overnight. One hundred μl of SRB solution (0.4% sulforhodamine B in 1% acetic acid, filtered before use) was added to each well for 30 minutes. Wells were washed with 1% acetic acid 4-5 times and air dried. Two hundred μl 10 mM Tris base was added to each well. Plates were shaken for 5-10 minutes and OD at 490 nm (OD490) was recorded via ELISA reader. To assay matrix invasion, 300 μl of cell suspension (10^6 cells/mL in serum-free medium) were added to invasion inserts (BioCoat Matrigel Invasion Chambers, Becton Dickinson, Bedford, Mass.) and incubated for 22 hours at 37° C., 5% CO2. […] After removal of the non-invading cells from the interior of the inserts, stained invading cells were lysed in 10% acetic acid and OD595 was determined. […]

Notch-1 = assay: Notch Western blot in MDA-MB231 cells; details: MDA-MB231; 25 μM; 48 hours
Description: Notch silencing was confirmed by Western blot using commercial goat polyclonal antibodies from Santa Cruz Biotechnology to Notch-1 (C-20, Cat# sc-6014 S) and Notch-4 (C-19, Cat# sc-8644). Total cell lysates were prepared as follows: cells grown on 6 cm dishes were scraped in lysis buffer containing 1×PBS, 1% Nonidet P40, 0.5% deoxycholate, 0.1% SDS, freshly added aprotinin (45 μg/ml), phenylmethylsulfonyl fluoride (10 μg/ml), and sodium orthovanadate (10 μM). Lysates were sonicated 4 times for 5 seconds each, followed by 30 minutes incubation on ice. Lysates were centrifuged at 10,000 g for 20 minutes at 4° C. Supernatants were used as total cell lysates. Nuclear extracts were prepared as follows: 10,000,000 cells were pelleted, washed, and quickly frozen in a dry ice bath. Pellets were thawed by adding 100 μl of buffer 1 (10 mM HEPES, pH 7.9, 10 mM KCl, 1.5 mM MgCl2, 1 mM DTT). Nuclei were pelleted and lysed in 15 μl Buffer 2 (20 mM HEPES, pH7.9, 0.4 M NaCl, 1.5 mM MgCl2, 25% glycerol, 0.2 mM EDTA, 1 mM DTT, and 0.5 mM PMSF). Lysates were diluted in 50-70 μl Buffer 3 (20 mM HEPES, pH 7.9, 50 mM KCl, 20% glycerol, 0.2 mM EDTA, 1 mM DTT, 0.5 mM PMSF). Protein concentrations were estimated using the BCA protein assay (Pierce). Supernatants were boiled in reducing SDS sample buffer (Novex). Twenty μg protein per lane were run on a 3-8% Tris acetate gel (Invitrogen) in Tris Acetate Reducing Running Buffer (Novex). Protein bands were transferred onto PVDF membranes (BioRad) using transfer buffer (Novex). Membranes were then blocked overnight at 4° C. in 2% blocking solution in TBS (Roche). Primary antibodies were diluted in 2% Boehringer blocking solution (total volume 5 ml). Membranes were incubated for one hour at room temperature with shaking, then washed 6 times for 10 minutes each in TBS wash buffer. Membranes were incubated in secondary antibody in 2% of blocking solution for 30 minutes, then washed 6 times for 10 minutes each at RT in wash buffer. Bands were detected with chemiluminescent reagent (Roche) according to the manufacturer's directions. […]

[4] = system: MDA-MB231 breast cancer cells; assay: Extracellular matrix invasion of MDA-MB231 cells (Matrigel Invasion Chambers); details: 25 μM, 22 h
Description: Cytotoxicity and growth of transfected cells were estimated by a standard assay used for cancer drug screening, through the total amount of TCA-precipitated cell proteins after drug treatment (Likhitwitayawuid, K et al., 1993, J Nat Prod 56:30-38): 200 μl of cell suspension (10^5 cells/ml) were added to each well in a 96-well plate. After incubation at, 37° C., in 5% CO2 (30 minutes to 72 hours depending on the time course chosen), 50 μl 50% trichloroacetic acid was added to each well. After incubation at 4° C. for 1 hour, precipitates were washed with water 4-5 times and air dried overnight. One hundred μl of SRB solution (0.4% sulforhodamine B in 1% acetic acid, filtered before use) was added to each well for 30 minutes. Wells were washed with 1% acetic acid 4-5 times and air dried. Two hundred μl 10 mM Tris base was added to each well. Plates were shaken for 5-10 minutes and OD at 490 nm (OD490) was recorded via ELISA reader. To assay matrix invasion, 300 μl of cell suspension (10^6 cells/mL in serum-free medium) were added to invasion inserts (BioCoat Matrigel Invasion Chambers, Becton Dickinson, Bedford, Mass.) and incubated for 22 hours at 37° C., 5% CO2. Cells were stained with 0.9% crystal violet in 10% ethanol for 20 minutes. Inserts were dipped in water several times and air dried. After removal of the non-invading cells from the interior of the inserts, stained invading cells were lysed in 10% acetic acid and OD595 was determined.
Notch silencing was confirmed by Western blot as described above in Example 15 using commercial goat polyclonal antibodies from Santa Cruz Biotechnology to Notch-1 (C-20, Cat# sc-6014 S). For the Western blot analyses, MDA-MB231 cells were treated with 25 μM IL-X for 48 h or with 0.5, 1 or 2 μM z-Leu-Leu-Nle-CHO for 24 h. Cytotoxicity and matrix invasion assays were performed as described above in Example 15. For the cytotoxicity assays, MDA-MB231 cells were treated with […] IL-X for up to 3 days or with 0-20 μM z-Leu-Leu-Nle-CHO for up to 4 days. […]

CC(=O)N[C@@H](CSC(=O)[C@]1([C@@H](O)C(C)C)NC(=O)[C@H](C)[C@@H]1O)C(=O)O [lactacystin]
cells undergoing apoptosis (normal melanocytes): no more than 10% | apoptotic response to increasing concentrations (melanoma cell lines): significantly enhanced apoptotic responses | NOXA induction (NOXA [1]): induced high NOXA levels | NOXA induction (NOXA [2]): no induction of NOXA in any of the normal melanocytes

CCC(C)C(NC(=O)OCc1ccccc1)C(=O)NC(C=O)CC(C)C (stereo not drawn) [IL-X, cbz-IL-CHO] (Cbz-Ile-Leu-aldehyde; configuration not given here)
concentration above which cytotoxic [3]: above 100 μM | molecular forms of Notch-1 (Notch-1): apparent reduction in all molecular forms of Notch-1 | in vitro matrix invasion [4]: significantly reduced in vitro matrix invasion
